Target: T1, CIB1 and αIIb interaction (CIB1-GST : F-αIIb peptide) (Homo sapiens, UniProt Q99828)
T1 construct: made in house; host or cells: BL-21 plus RIL cells (E. coli)
T1 sequence (Q99828 1-191): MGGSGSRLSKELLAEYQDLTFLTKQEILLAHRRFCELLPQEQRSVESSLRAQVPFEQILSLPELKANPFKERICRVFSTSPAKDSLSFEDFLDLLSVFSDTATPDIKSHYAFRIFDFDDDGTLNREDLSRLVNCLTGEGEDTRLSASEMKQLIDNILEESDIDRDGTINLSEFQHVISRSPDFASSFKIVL
Experiment: FP assay, 1536-well qHTS format (primary and confirmatory screen)
Format: binding
Settings: Table S3, confirmatory screen, qHTS curve class; a negative sign marks inhibitory curves

Compound | Curve Class (confirmatory screen)
N#Cc1ccc(NS(=O)(=O)c2ccc(NC(=O)Cc3ccc(Cl)c(Cl)c3)cc2)cc1.O=C(O)C(F)(F)F [NCGC00253445-01] | 2.3

Same assay, conditions: Table S3, confirmatory screen; negative = inhibition

Compound | Efficacy (%) (confirmatory screen)
N#Cc1ccc(NS(=O)(=O)c2ccc(NC(=O)Cc3ccc(Cl)c(Cl)c3)cc2)cc1.O=C(O)C(F)(F)F [NCGC00253445-01] | 146%

Same assay, conditions: confirmatory screen

Compound | Efficacy (%) (confirmatory screen)
O=C(Cc1ccc(Cl)c(Cl)c1)Nc1ccc(S(=O)(=O)Nc2cnccn2)cc1.O=C(O)C(F)(F)F [NCGC00248365-02] | -30%
CCN1CCN(c2ccc(Nc3ccc(-c4ccc(C(N)=O)cc4)n4ncnc34)cc2)CC1.O=C(O)C(F)(F)F [NCGC00249351-01] | -64%
O=C(O)C(F)(F)F.c1ccc(-n2ccc(-c3nnc4n3CCCCC4)c2)cc1 [NCGC00249645-01] | -104%

Same assay, conditions: confirmatory screen, YES/NO

Compound | Confirm? (confirmatory screen)
O=C(Cc1ccc(Cl)c(Cl)c1)Nc1ccc(S(=O)(=O)Nc2cnccn2)cc1.O=C(O)C(F)(F)F [NCGC00248365-02] | YES
CCN1CCN(c2ccc(Nc3ccc(-c4ccc(C(N)=O)cc4)n4ncnc34)cc2)CC1.O=C(O)C(F)(F)F [NCGC00249351-01] | YES
O=C(O)C(F)(F)F.c1ccc(-n2ccc(-c3nnc4n3CCCCC4)c2)cc1 [NCGC00249645-01] | YES

Same assay, conditions: confirmatory screen, qHTS curve class; negative sign = inhibitory curve

Compound | Curve Class (confirmatory screen)
O=C(Cc1ccc(Cl)c(Cl)c1)Nc1ccc(S(=O)(=O)Nc2cnccn2)cc1.O=C(O)C(F)(F)F [NCGC00248365-02] | -1.4
CCN1CCN(c2ccc(Nc3ccc(-c4ccc(C(N)=O)cc4)n4ncnc34)cc2)CC1.O=C(O)C(F)(F)F [NCGC00249351-01] | -2.4
O=C(O)C(F)(F)F.c1ccc(-n2ccc(-c3nnc4n3CCCCC4)c2)cc1 [NCGC00249645-01] | -2.1

Same assay, conditions: confirmatory screen; read-out: IC50 [μM] (confirmatory screen)

Compound | IC50
CCN1CCN(c2ccc(Nc3ccc(-c4ccc(C(N)=O)cc4)n4ncnc34)cc2)CC1.O=C(O)C(F)(F)F [NCGC00249351-01] | 22.4 µM
O=C(O)C(F)(F)F.c1ccc(-n2ccc(-c3nnc4n3CCCCC4)c2)cc1 [NCGC00249645-01] | 50.1 µM

Same assay, conditions: qHTS FP screen hits, Table S2; negative = inhibition

Compound | Efficacy (%)
O=C(Cc1ccc(Cl)c(Cl)c1)Nc1ccc(S(=O)(=O)Nc2cnccn2)cc1.O=C(O)C(F)(F)F [NCGC00248365-02] | -26%
CCN1CCN(c2ccc(Nc3ccc(-c4ccc(C(N)=O)cc4)n4ncnc34)cc2)CC1.O=C(O)C(F)(F)F [NCGC00249351-01] | -39%
O=C(O)C(F)(F)F.c1ccc(-n2ccc(-c3nnc4n3CCCCC4)c2)cc1 [NCGC00249645-01] | -91%

Same assay, conditions: qHTS FP screen hits, Table S2; one class per curve where COUNT > 1; negative sign = inhibitory curve

Compound | Curve Class
CCN1CCN(c2ccc(Nc3ccc(-c4ccc(C(N)=O)cc4)n4ncnc34)cc2)CC1.O=C(O)C(F)(F)F [NCGC00249351-01] | -2.2
O=C(O)C(F)(F)F.c1ccc(-n2ccc(-c3nnc4n3CCCCC4)c2)cc1 [NCGC00249645-01] | -2.2

Same assay, conditions: qHTS FP screen hits, Table S2; read-out: IC50

Compound | IC50
O=C(Cc1ccc(Cl)c(Cl)c1)Nc1ccc(S(=O)(=O)Nc2cnccn2)cc1.O=C(O)C(F)(F)F [NCGC00248365-02] | 17.8 µM
CCN1CCN(c2ccc(Nc3ccc(-c4ccc(C(N)=O)cc4)n4ncnc34)cc2)CC1.O=C(O)C(F)(F)F [NCGC00249351-01] | 35.5 µM
O=C(O)C(F)(F)F.c1ccc(-n2ccc(-c3nnc4n3CCCCC4)c2)cc1 [NCGC00249645-01] | 79.4 µM

Target: T2, GST-CIB1 : F-scrambled peptide (Homo sapiens, UniProt Q99828)
T2 construct: made in house; host or cells: BL-21 plus RIL cells (E. coli)
T2 sequence (Q99828 1-191): T1 sequence (Q99828 1-191)
Experiment: FP scrambled-peptide counter screen, 1536-well format
Format: binding
Settings: Table S3, counterscreen; negative = inhibition

Compound | Efficacy (%) (counterscreen)
N#Cc1ccc(NS(=O)(=O)c2ccc(NC(=O)Cc3ccc(Cl)c(Cl)c3)cc2)cc1.O=C(O)C(F)(F)F [NCGC00253445-01] | 202%

Same assay, conditions: Table S3, counterscreen; read-out: IC50 [μM] (counterscreen)

Compound | IC50
N#Cc1ccc(NS(=O)(=O)c2ccc(NC(=O)Cc3ccc(Cl)c(Cl)c3)cc2)cc1.O=C(O)C(F)(F)F [NCGC00253445-01] | 70.8 µM

Same assay, conditions: counterscreen

Compound | Efficacy (%) (counterscreen)
O=C(Cc1ccc(Cl)c(Cl)c1)Nc1ccc(S(=O)(=O)Nc2cnccn2)cc1.O=C(O)C(F)(F)F [NCGC00248365-02] | -24%
CCN1CCN(c2ccc(Nc3ccc(-c4ccc(C(N)=O)cc4)n4ncnc34)cc2)CC1.O=C(O)C(F)(F)F [NCGC00249351-01] | -68%
O=C(O)C(F)(F)F.c1ccc(-n2ccc(-c3nnc4n3CCCCC4)c2)cc1 [NCGC00249645-01] | -62%

Same assay, conditions: counterscreen, YES/NO

Compound | Confirm? (counterscreen)
O=C(Cc1ccc(Cl)c(Cl)c1)Nc1ccc(S(=O)(=O)Nc2cnccn2)cc1.O=C(O)C(F)(F)F [NCGC00248365-02] | YES

Same assay, conditions: counterscreen, qHTS curve class; negative sign = inhibitory curve

Compound | Curve Class (counterscreen)
O=C(Cc1ccc(Cl)c(Cl)c1)Nc1ccc(S(=O)(=O)Nc2cnccn2)cc1.O=C(O)C(F)(F)F [NCGC00248365-02] | 4
CCN1CCN(c2ccc(Nc3ccc(-c4ccc(C(N)=O)cc4)n4ncnc34)cc2)CC1.O=C(O)C(F)(F)F [NCGC00249351-01] | -2.2
O=C(O)C(F)(F)F.c1ccc(-n2ccc(-c3nnc4n3CCCCC4)c2)cc1 [NCGC00249645-01] | -3

Same assay, conditions: counterscreen; read-out: IC50 [μM] (counterscreen)

Compound | IC50
CCN1CCN(c2ccc(Nc3ccc(-c4ccc(C(N)=O)cc4)n4ncnc34)cc2)CC1.O=C(O)C(F)(F)F [NCGC00249351-01] | 50.1 µM
O=C(O)C(F)(F)F.c1ccc(-n2ccc(-c3nnc4n3CCCCC4)c2)cc1 [NCGC00249645-01] | 89.1 µM

Source: PMC11249646, “Small-Molecule Disruptors of the Interaction between Calcium- and Integrin-Binding Protein 1 and Integrin αIIbβ3 as Novel Antiplatelet Agents” (ACS Pharmacology & Translational Science, 2024)
